This passage reports IC50 results from ChEMBL document CHEMBL1933051, “Cytotoxic bistetrahydrofuran annonaceous acetogenins from the seeds of Annona squamosa” (J Nat Prod, 2011).

Converted amounts (≈) assume the structure as drawn.

Format in all cases: functional, cell-based
For experiment [1], the system named is HeLa. As to the kind of experiment: Cytotoxicity against human HeLa cells by MTT assay. A general note: Formazan colour is commonly taken as a measure of viable cells.
Experiment [2] relates to A549. As to the kind of experiment: Cytotoxicity against human A549 cells by MTT assay.
Experiment [3] has as its system SMMC-7721. As to the kind of experiment: Cytotoxicity against human SMMC7721 cells by MTT assay.
The subject of experiment [4] is MKN-45. In words: Cytotoxicity against human MKN45 cells by MTT assay.
Experiment [5] relates to HepG2. In words: Cytotoxicity against human HepG2 cells by MTT assay.
For experiment [6], the system named is MCF7. As to the kind of experiment: Cytotoxicity against human MCF7 cells by MTT assay.

By IC50 is commonly meant the concentration needed to halve the response being measured. In the case of `CCCCC[C@H](O)[C@@H]1CC[C@@H]([C@H](O)CC[C@H](O)[C@@H]2CC[C@@H](CCCCCCCCCCCC[C@@H](O)CC3=C[C@H](C)OC3=O)O2)O1` (relative stereo), the concentration for half-maximal inhibition (IC50) stood at 1.5 µg/mL (≈ 2.35 µM) in experiment [1]; 0.68 µg/mL (≈ 1.06 µM) in experiment [2]; 0.39 µg/mL (≈ 0.61 µM) in experiment [3]; 0.59 µg/mL (≈ 0.923 µM) in experiment [4]; 0.8 µg/mL (≈ 1.25 µM) in experiment [5]; 0.75 µg/mL (≈ 1.17 µM) in experiment [6].

As for `CCCCCCCCCC[C@H](O)[C@@H]1CC[C@@H]([C@H](O)CC[C@@H](O)[C@@H]2CC[C@@H](CCCCCCCCCC3=C[C@@H](C)OC3=O)O2)O1` [Squamostatin-D], the IC50 in experiment [1] is 0.1 µg/mL (≈ 0.161 µM); in experiment [2], 0.046 µg/mL (≈ 0.0738 µM); in experiment [3], 0.25 µg/mL (≈ 0.401 µM); in experiment [4], 0.87 µg/mL (≈ 1.4 µM); in experiment [5], 0.56 µg/mL (≈ 0.899 µM); in experiment [6], 0.11 µg/mL (≈ 0.177 µM).

Consider `CCCCCC[C@@H](O)CCC[C@H](O)[C@@H]1CC[C@@H]([C@H](O)CC[C@@H](O)[C@@H]2CC[C@@H](CCCCCCCCCC3=C[C@@H](C)OC3=O)O2)O1` [Squamostatin-A], for which the IC50 came out at 0.45 µg/mL (≈ 0.704 µM) in experiment [1]; 0.21 µg/mL (≈ 0.329 µM) in experiment [2]; 0.49 µg/mL (≈ 0.767 µM) in experiment [3]; 0.93 µg/mL (≈ 1.46 µM) in experiment [4]; 0.83 µg/mL (≈ 1.3 µM) in experiment [5]; 0.15 µg/mL (≈ 0.235 µM) in experiment [6].

Take `O=c1[nH]cc(F)c(=O)[nH]1` [FLUOROURACIL]: the IC50 was 0.14 µg/mL (≈ 1.08 µM) in experiment [1]; 0.32 µg/mL (≈ 2.46 µM) in experiment [2]; 0.023 µg/mL (≈ 0.177 µM) in experiment [3]; 0.36 µg/mL (≈ 2.77 µM) in experiment [4]; 0.0082 µg/mL (≈ 0.063 µM) in experiment [5]; 0.22 µg/mL (≈ 1.69 µM) in experiment [6].

As for `CCCCCCCCCC[C@@H](O)[C@@H]1CC[C@@H]([C@@H]2CC[C@@H]([C@H](O)CCCCCCCCCC(O)CC3=CC(C)OC3=O)O2)O1` (stereo partly drawn) [BULLATACIN], the IC50 in experiment [1] worked out at 0.034 µg/mL (≈ 0.0558 µM); in experiment [2] it was 0.033 µg/mL (≈ 0.0542 µM); in experiment [3], 0.0048 µg/mL (≈ 0.00788 µM); in experiment [4] it was 0.053 µg/mL (≈ 0.087 µM); in experiment [5], 0.032 µg/mL (≈ 0.0526 µM); in experiment [6], 0.043 µg/mL (≈ 0.0706 µM).

For `CCCC[C@H](O)[C@H](O)[C@@H]1CC[C@@H]([C@H](O)CC[C@H](O)[C@@H]2CC[C@@H](CCCCCCCCCCCCCCC3=C[C@H](C)OC3=O)O2)O1` (relative stereo), the half-maximal inhibitory concentration (IC50) in experiment [1] amounted to 0.57 µg/mL (≈ 0.892 µM); in experiment [2] it was 0.31 µg/mL (≈ 0.485 µM); in experiment [3], 0.11 µg/mL (≈ 0.172 µM); in experiment [4] it was 0.14 µg/mL (≈ 0.219 µM); in experiment [5], 0.17 µg/mL (≈ 0.266 µM); in experiment [6], 0.5 µg/mL (≈ 0.783 µM).

With `CCCCCCCCCC[C@@H](O)[C@H]1CC[C@H]([C@H]2CC[C@H]([C@H](O)CCCCCCCCC[C@H](O)CCC3=C[C@H](C)OC3=O)O2)O1` [UVARIGRANDIN A], the IC50 in experiment [1] turned out to be 0.07 µg/mL (≈ 0.112 µM); in experiment [2], 0.08 µg/mL (≈ 0.128 µM); in experiment [3], 0.0029 µg/mL (≈ 0.00466 µM); in experiment [4], 0.069 µg/mL (≈ 0.111 µM); in experiment [5], 0.78 µg/mL (≈ 1.25 µM); in experiment [6], 0.096 µg/mL (≈ 0.154 µM).

Regarding `CCCCCCCCCCCC(O)CCC[C@H](O)[C@H]1CC[C@H]([C@H]2CC[C@H]([C@H](O)CCCCCCCC3=C[C@H](C)OC3=O)O2)O1` (relative stereo), the IC50 is 0.025 µg/mL (≈ 0.0401 µM) in experiment [1]; 0.012 µg/mL (≈ 0.0193 µM) in experiment [2]; 0.057 µg/mL (≈ 0.0915 µM) in experiment [3]; 0.042 µg/mL (≈ 0.0674 µM) in experiment [4]; 0.022 µg/mL (≈ 0.0353 µM) in experiment [5]; 0.052 µg/mL (≈ 0.0835 µM) in experiment [6].
